Test results as given in EP3046573B1, “AMYLIN ANALOGUES” (Zealand Pharma A/S, priority 2013, dated 2015).
Like-named read-outs stand apart in the source and are kept apart here. Numbered stars: 1 amine (or outer) side, 2 acyl side, 3 side chain; on linkers, the order of the positions; unused ones are H or OH. Bridge positions count the residues as written; N and C are the ends. Square brackets hold non-standard residues; d marks the D form. Peptide text beside a SMILES is read from it. * marks the point of attachment. C20 diacid = O=C(O)CCCCCCCCCCCCCCCCCCC(=O)*; γGlu = O=C(O)[C@H](CCC(=O)[*:2])N[*:1]; NMeI = CC[C@H](C)[C@H](NC)C(=O)O; Sar = CNCC(=O)O

Assays:
[1] = Solubility assessment (turbidity absorbance at 325 nm); format: physicochemical; details: stock 2 mg/ml diluted 1:1, ambient temperature (typically 25°C), n=1; for Solubility, Acetate buffer pH 4: 100 mM acetate buffer pH 4.0; for Solubility, Acetate buffer pH 5: 100 mM acetate buffer pH 5.0; for Solubility, Histidine buffer pH 6: 100 mM histidine buffer pH 6.0; for Solubility, Histidine buffer pH 7: 100 mM histidine buffer pH 7.0; for Solubility, Phosphate buffer pH 6: 100 mM phosphate buffer pH 6.0; for Solubility, Phosphate buffer pH 7: 100 mM phosphate buffer pH 7.0; for Solubility, Phosphate buffer pH 7.5: 100 mM phosphate buffer pH7.5
Method in brief: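 Turbidity read as absorbance at 325 nm (also 280 nm), single samples at ambient temperature (typically 25°C); ≤ 0.02 units counts as ≥ 1 mg/ml soluble. Samples made by 1:1 dilution of a 2 mg/ml acidic stock into 100 mM acetate, histidine or phosphate buffers, pH 4.0–7.5.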

[2] = target: T1, human calcitonin receptor (hCTR2) (Homo sapiens, UniProt P30988); test: hCTR2 assay: induction of cAMP (AlphaScreen cAMP Assay kit) in COS7 cells expressing hCTR2; format: cell-based; details: cAMP induction in COS7 cells expressing hCTR2; average of a minimum of 3 determinations; read-out: hCTR2 EC50
T1 construct: expressed in transfected cells
T1 sequence (P30988 25-474): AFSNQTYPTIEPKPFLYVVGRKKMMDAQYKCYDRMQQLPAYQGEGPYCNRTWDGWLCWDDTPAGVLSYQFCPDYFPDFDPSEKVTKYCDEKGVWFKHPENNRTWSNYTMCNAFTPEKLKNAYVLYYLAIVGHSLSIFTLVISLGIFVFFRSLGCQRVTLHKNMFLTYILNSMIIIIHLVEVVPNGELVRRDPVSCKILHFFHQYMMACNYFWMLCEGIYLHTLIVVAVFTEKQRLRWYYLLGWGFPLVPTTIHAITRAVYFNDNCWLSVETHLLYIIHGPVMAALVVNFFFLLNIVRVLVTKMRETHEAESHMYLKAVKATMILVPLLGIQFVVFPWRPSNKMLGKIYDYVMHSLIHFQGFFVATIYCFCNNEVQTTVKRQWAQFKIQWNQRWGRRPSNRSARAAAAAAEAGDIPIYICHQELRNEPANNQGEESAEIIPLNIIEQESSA
Method in brief: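 Cells were seeded one day ahead, washed, then exposed to rising peptide concentrations for 15 min at 37° C in the presence of 100 µM IBMX. After lysis for 10 min at room temperature, cAMP was quantified by AlphaScreen and EC50 values derived by 4PL fitting.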

[3] = target: T2, human amylin receptor 3 (hAMYR3) consisting of hCTR2 co-expressed with human Receptor Activity Modifying Protein 3 (hRAMP3) (Homo sapiens, UniProt O60896+P30988); test: hAMYR3 assay: induction of cAMP (AlphaScreen cAMP Assay kit) in COS7 cells expressing hAMYR3; format: cell-based
T2 construct: expressed in transfected cells
T2 sequence (P30988 25-474): T1 sequence (P30988 25-474)
T2 sequence (O60896 24-148 partner): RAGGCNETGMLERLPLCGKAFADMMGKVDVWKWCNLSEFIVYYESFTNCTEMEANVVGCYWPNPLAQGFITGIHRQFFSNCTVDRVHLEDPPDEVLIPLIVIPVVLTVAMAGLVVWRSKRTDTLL
Method in brief: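 cAMP accumulation read by AlphaScreen in lysates of RAMP-naive COS7 cells stably transfected with hCTR2 plus hRAMP3. Cells exposed to peptide dilutions for 15 min, 37° C, with 100 µM IBMX; 4PL fitting gave EC50 and efficacy relative to pramlintide.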

| SMILES | Solubility, Acetate buffer pH 4 [1] | Solubility, Acetate buffer pH 5 [1] | Solubility, Histidine buffer pH 6 [1] | Solubility, Histidine buffer pH 7 [1] | Solubility, Phosphate buffer pH 6 [1] | Solubility, Phosphate buffer pH 7 [1] | Solubility, Phosphate buffer pH 7.5 [1] | EC50 [2] [nM] | EC50 ([3]; cAMP induction in COS7 cells expressing hAMYR3, average of a minimum of 3 determinations, read-out: hAMY R3 EC50) [nM] | EC50 [3] [nM] |
| --- | --- | --- | --- | --- | --- | --- | --- | --- | --- | --- |
| CC[C@H](C)[C@@H](C(=O)N[C@@H](CC(C)C)C(=O)N[C@@H](CO)C(=O)N[C@@H](CO)C(=O)N[C@H](C(=O)N[C@@H](CCC(=O)O)C(=O)N[C@H](C(=O)NCC(=O)N[C@@H](CO)C(=O)N[C@@H](CCC(=O)O)C(=O)N[C@H](C(=O)N1CCC[C@H]1C(N)=O)[C@@H](C)O)C(C)C)[C@@H](C)O)N(C)C(=O)[C@H](C)NC(=O)CN(C)C(=O)[C@H](Cc1ccccc1)NC(=O)[C@H](CO)NC(=O)[C@H](CO)NC(=O)[C@H](CO)NC(=O)[C@H](CO)NC(=O)[C@H](CCCNC(=N)N)NC(=O)[C@H](Cc1c[nH]cn1)NC(=O)[C@H](CC(C)C)NC(=O)[C@H](Cc1ccccc1)NC(=O)[C@H](CCC(=O)O)NC(=O)[C@H](C)NC(=O)[C@H](CC(C)C)NC(=O)[C@H](CCCNC(=N)N)NC(=O)[C@H](C)NC(=O)[C@@H](NC(=O)[C@H](C)NC(=O)[C@@H]1CSSC[C@H](NC(=O)[C@H](CCCNC(=N)N)NC(=O)CC[C@H](NC(=O)CCCCCCCCCCCCCCCCCCC(=O)O)C(=O)O)C(=O)N[C@@H](CO)C(=O)N[C@@H]([C@@H](C)O)C(=O)N[C@@H](C)C(=O)N[C@@H]([C@@H](C)O)C(=O)N1)[C@@H](C)O [Compound 144, [19CD]-isoGlu-RC()STATC()ATARLAEFLHRSSSSF-Gly(Me)-A-Ile(Me)-LSSTEVGSETP-NH2] ({C20 diacid-γGlu}-RCSTATCATARLAEFLHRSSSSF[Sar]A[NMeI]LSSTEVGSETP-NH2; disulfide 2-7) | SS (SS indicates solubility ≥ 1mg/ml) | SS (SS indicates solubility ≥ 1mg/ml) | SS (SS indicates solubility ≥ 1mg/ml) | SS (SS indicates solubility ≥ 1mg/ml) | SS (SS indicates solubility ≥ 1mg/ml) | SS (SS indicates solubility ≥ 1mg/ml) | SS (SS indicates solubility ≥ 1mg/ml) | 0.11 | 0.24 |  |
| CC[C@H](C)[C@@H](C(=O)N[C@@H](CC(C)C)C(=O)N[C@@H](CO)C(=O)N[C@@H](CO)C(=O)N[C@H](C(=O)N[C@@H](CCC(=O)O)C(=O)N[C@H](C(=O)NCC(=O)N[C@@H](CO)C(=O)N[C@@H](CCC(=O)O)C(=O)N[C@H](C(=O)N1CCC[C@H]1C(N)=O)[C@@H](C)O)C(C)C)[C@@H](C)O)N(C)C(=O)[C@H](C)NC(=O)CN(C)C(=O)[C@H](Cc1ccccc1)NC(=O)[C@H](CO)NC(=O)[C@H](CO)NC(=O)[C@H](CO)NC(=O)[C@H](CO)NC(=O)[C@H](CCCNC(=N)N)NC(=O)[C@H](Cc1c[nH]cn1)NC(=O)[C@H](CC(C)C)NC(=O)[C@H](Cc1ccccc1)NC(=O)[C@H](CCC(=O)O)NC(=O)[C@H](C)NC(=O)[C@H](CC(C)C)NC(=O)[C@H](CCCNC(=N)N)NC(=O)[C@H](C)NC(=O)[C@@H](NC(=O)[C@H](C)NC(=O)[C@@H]1CSSC[C@H](NC(=O)[C@H](CCCNC(=N)N)NC(=O)CC[C@H](NC(=O)CCCCCCCCCCCCCCCCCCC(=O)O)C(=O)O)C(=O)N[C@@H](CC(=O)O)C(=O)N[C@@H]([C@@H](C)O)C(=O)N[C@@H](C)C(=O)N[C@@H]([C@@H](C)O)C(=O)N1)[C@@H](C)O [Compound 145, [19CD]-isoGlu-RC()DTATC()ATARLAEFLHRSSSSF-Gly(Me)-A-Ile(Me)-LSSTEVGSETP-NH2] ({C20 diacid-γGlu}-RCDTATCATARLAEFLHRSSSSF[Sar]A[NMeI]LSSTEVGSETP-NH2; disulfide 2-7) | SS (SS indicates solubility ≥ 1mg/ml) | SS (SS indicates solubility ≥ 1mg/ml) | SS (SS indicates solubility ≥ 1mg/ml) | SS (SS indicates solubility ≥ 1mg/ml) | SS (SS indicates solubility ≥ 1mg/ml) | SS (SS indicates solubility ≥ 1mg/ml) | SS (SS indicates solubility ≥ 1mg/ml) | 0.092 |  | 0.22 |
| CC[C@H](C)[C@@H](C(=O)N[C@@H](CC(C)C)C(=O)N[C@@H](CO)C(=O)N[C@@H](CO)C(=O)N[C@H](C(=O)N[C@@H](CCC(=O)O)C(=O)N[C@H](C(=O)NCC(=O)N[C@@H](CO)C(=O)N[C@@H](CCC(=O)O)C(=O)N[C@H](C(=O)N1CCC[C@H]1C(N)=O)[C@@H](C)O)C(C)C)[C@@H](C)O)N(C)C(=O)[C@H](C)NC(=O)CN(C)C(=O)[C@H](Cc1ccccc1)NC(=O)[C@H](CO)NC(=O)[C@H](CO)NC(=O)[C@H](CO)NC(=O)[C@H](CO)NC(=O)[C@H](CCCNC(=N)N)NC(=O)[C@H](Cc1c[nH]cn1)NC(=O)[C@H](CC(C)C)NC(=O)[C@H](Cc1ccccc1)NC(=O)[C@H](CCC(=O)O)NC(=O)[C@H](C)NC(=O)[C@H](CC(C)C)NC(=O)[C@H](CCCNC(=N)N)NC(=O)[C@H](C)NC(=O)[C@@H](NC(=O)[C@H](C)NC(=O)[C@@H]1CSSC[C@H](NC(=O)[C@H](CCCNC(=N)N)NC(=O)CC[C@H](NC(=O)CCCCCCCCCCCCCCCCCCC(=O)O)C(=O)O)C(=O)N[C@@H](CCC(=O)O)C(=O)N[C@@H]([C@@H](C)O)C(=O)N[C@@H](C)C(=O)N[C@@H]([C@@H](C)O)C(=O)N1)[C@@H](C)O [Compound 146, [19CD]-isoGlu-RC()ETATC()ATARLAEFLHRSSSSF-Gly(Me)-A-Ile(Me)-LSSTEVGSETP-NH2] ({C20 diacid-γGlu}-RCETATCATARLAEFLHRSSSSF[Sar]A[NMeI]LSSTEVGSETP-NH2; disulfide 2-7) | SS (SS indicates solubility ≥ 1mg/ml) | SS (SS indicates solubility ≥ 1mg/ml) | SS (SS indicates solubility ≥ 1mg/ml) | SS (SS indicates solubility ≥ 1mg/ml) | SS (SS indicates solubility ≥ 1mg/ml) | SS (SS indicates solubility ≥ 1mg/ml) | SS (SS indicates solubility ≥ 1mg/ml) | 0.092 |  | 0.15 |
